Measurements published in publication PMC3914206.

How the values were obtained:
panel of 442 kinases [1] = target: T1, panel of 442 kinases (Homo sapiens, UniProt Q96L34); format: binding; conditions: Compound Concentration 10 µM
T1 construct: purchased KINOMEscan
T1 sequence (Q96L34 1-752): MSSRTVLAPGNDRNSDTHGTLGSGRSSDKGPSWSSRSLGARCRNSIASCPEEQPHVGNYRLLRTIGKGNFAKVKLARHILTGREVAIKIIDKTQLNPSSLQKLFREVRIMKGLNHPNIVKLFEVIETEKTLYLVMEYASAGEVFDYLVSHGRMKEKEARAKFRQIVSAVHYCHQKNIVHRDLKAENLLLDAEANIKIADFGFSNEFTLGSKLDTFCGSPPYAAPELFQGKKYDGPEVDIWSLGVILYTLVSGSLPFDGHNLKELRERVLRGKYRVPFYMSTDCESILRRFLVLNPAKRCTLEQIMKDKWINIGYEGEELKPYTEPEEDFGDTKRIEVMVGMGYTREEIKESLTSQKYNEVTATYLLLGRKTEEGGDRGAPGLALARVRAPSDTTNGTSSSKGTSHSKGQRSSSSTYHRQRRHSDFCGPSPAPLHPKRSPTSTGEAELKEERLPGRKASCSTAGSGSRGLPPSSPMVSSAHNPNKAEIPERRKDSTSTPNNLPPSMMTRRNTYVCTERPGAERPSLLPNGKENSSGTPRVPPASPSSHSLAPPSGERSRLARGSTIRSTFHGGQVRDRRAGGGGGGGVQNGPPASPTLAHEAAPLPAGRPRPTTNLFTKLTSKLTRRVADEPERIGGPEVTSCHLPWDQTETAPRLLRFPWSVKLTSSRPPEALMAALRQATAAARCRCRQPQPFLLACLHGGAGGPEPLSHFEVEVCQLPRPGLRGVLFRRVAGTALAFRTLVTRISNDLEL
Source text: (§1) We assessed the selectivity of members of this scaffold using the KINOMEscan methodology across a near comprehensive panel of 442 kinases [[18,27]].

panel of 442 kinases [2] = target: T2, panel of 442 kinases (Homo sapiens, UniProt Q00532); format: binding; conditions: Compound Concentration 10 µM
T2 construct: purchased KINOMEscan
T2 sequence (Q00532 whole entry): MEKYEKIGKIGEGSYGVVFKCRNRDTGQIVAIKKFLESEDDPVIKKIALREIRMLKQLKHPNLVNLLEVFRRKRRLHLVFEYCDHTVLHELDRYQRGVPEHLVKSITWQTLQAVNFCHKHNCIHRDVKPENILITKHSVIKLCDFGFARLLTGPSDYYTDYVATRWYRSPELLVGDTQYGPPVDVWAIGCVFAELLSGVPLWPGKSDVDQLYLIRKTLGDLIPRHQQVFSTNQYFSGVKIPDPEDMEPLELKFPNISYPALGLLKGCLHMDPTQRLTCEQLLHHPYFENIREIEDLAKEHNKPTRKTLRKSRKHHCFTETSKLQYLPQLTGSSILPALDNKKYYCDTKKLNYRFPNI
Source text: as §1

COc1cc(C(=O)N2CCC(N3CCN(C)CC3)CC2)ccc1Nc1ncc2c(n1)N(C)c1ccccc1C(=O)N2C [15 (LRRK2-IN-1)]
KINOMEscan: MARK4 (panel of 442 kinases [1]): 78 | KINOMEscan: CDKL1 (panel of 442 kinases [2]): 78

CCOc1cc(C(=O)N2CCC(N3CCN(C)CC3)CC2)ccc1Nc1ncc2c(n1)N(C1CCCC1)c1ccccc1C(=O)N2C [Compound 26]
KINOMEscan: MARK4 (panel of 442 kinases [1]): 100 | KINOMEscan: CDKL1 (panel of 442 kinases [2]): 86

COc1cc(C(=O)N2CCC(N3CCN(C)CC3)CC2)ccc1Nc1ncc2c(n1)N1CCc3cccc(c31)C(=O)N2C [Compound 24]
KINOMEscan: MARK4 (panel of 442 kinases [1]): 87

COc1cc(C(=O)N2CCC(N3CCN(C)CC3)CC2)ccc1Nc1ncc2c(n1)N(C1CCCC1)c1ccccc1C(=O)N2C [Compound 25, 11-cyclopentyl-2-((2-methoxy-4-(4-(4-methylpiperazin-1-yl)piperidine-1-carbonyl)phenyl)amino)-5-methyl-5H-benzo[e]pyrimido[5,4-b][1,4]diazepin-6(11H)-one]
KINOMEscan: MARK4 (panel of 442 kinases [1]): 100 | KINOMEscan: CDKL1 (panel of 442 kinases [2]): 100
